Experimental findings from US8394742B2, “Methods, compounds and compositions with genotype selective anticancer activity” (The Translation Genomics Research Institute, priority 2005, dated 2013) are described below.

One assay deals with HS766T (DPC4 deleted). Put plainly: MTS cell proliferation assay, HS766T cells. The assay is classed as cell-based. To be noted: Homo sapiens. The method, then: The inhibition of cell proliferation by library compounds was evaluated using the CellTiter 96 Non-Radioactive Cell Proliferation Assay following the protocol recommended by the manufacturer (Promega, Madison Wis.). Briefly, 2000 cells were seeded in each well of 96-well plates in 90 μl growth medium. Cells were allowed to attach overnight followed by addition of 10 μl of serially diluted compounds into the plates. After incubation for 4 days at 37° C. in a humidified incubator, 20 μl of a 20:1 mixture of (3-(4,5-dimethylthiazol-2-yl)-5-(3-carboxymethoxyphenyl)-2-(4-sulfophenyl)-2H-tetrazolium, inner salt (MTS, 2 mg/ml) and an electron coupling reagent, phenazine methosulfate (PMS, 0.92 mg/ml), was added to each well and incubated for 3 hours at 37° C. Absorbance was then measured using the Wallace Victor microplate reader at 490 nm (PerkinElmer, Wellesley, Mass.). Data were expressed as the percentage of cell growth calculated from the absorbance corrected for background absorbance. The surviving fraction of cells was determined by dividing the mean absorbance values of the treated samples by the mean absorbance values of the DMSO control.
After generating the isogenic cell lines for the DPC4 gene, Applicants then carried out a screening process using the cell lines with the aim to identify compounds that selectively kill cells with deficient DPC4 function. […]

Assay [1] deals with DPC4 isogenic cell lines (BxPC-3-vector and BxPC-3-DPC4). Put plainly: Pharmacological synthetic lethal screening in DPC4 isogenic cell lines. The assay is classed as cell-based, human. Particulars: reexpression isogenic cell lines. The source says: To find molecules that selectively kill cells with specific deficiencies, Applicants use cell proliferation assays to screen molecules libraries in a high throughput manner. These molecule libraries can be small organic compounds, siRNA libraries, antisense libraries and antibody/protein libraries. To carry out the screening in an efficient and cost-effective way, Applicants have designed a procedure for the screening of small organic compound libraries which consists of three steps, namely Toxicity Screen, Synthetic Lethal Screen and Selectivity Screen (FIG. 12). […]
In the Selectivity Screening, compounds are tested against cancer cell lines with a specific loss-of-function mutation and normal cells (HPDE6 and FORF-TERT). Depending on their approximate potency assessed in the Synthetic lethal Screening, compounds are tested in a range of concentrations (8 concentrations per agent) in Selectivity Screening. […]
After generating the isogenic cell lines for the DPC4 gene, Applicants then carried out a screening process using the cell lines with the aim to identify compounds that selectively kill cells with deficient DPC4 function. […] In each round, the anti-proliferative activity of compounds was evaluated in different cell lines using the CellTiter 96 Non-Radioactive Cell Proliferation Assay (Promega). […]

In another assay the test system is HPDE6 (wild-type DPC4). Put plainly: MTS cell proliferation assay, HPDE6 cells. The assay is classed as cell-based. Particulars: Homo sapiens. On the procedure:
At the initial screening, compounds are tested in the MTS assay (or other cell proliferation assays such as SRB and Alamar Blue) against the cell line in which the specific gene is either deleted or suppressed by siRNA at a single dose of 10 μM (Toxicity Screening).
Compounds that show more than 50% cell growth inhibition at this concentration are selected to test against both isogenic cell lines (loss-of-function vs. wild type) at three different concentrations (10, 2 and 0.4 μM, Synthetic lethal Screening). Compounds that show a selectivity index ≧5 are selected for next round of screening—Selectivity Screening.
In the Selectivity Screening, compounds are tested against cancer cell lines with a specific loss-of-function mutation and normal cells (HPDE6 and FORF-TERT). Depending on their approximate potency assessed in the Synthetic lethal Screening, compounds are tested in a range of concentrations (8 concentrations per agent) in Selectivity Screening. Compounds that have nM IC50 values in loss-of-function cells and selectivity index values >10 are selected for phenotypic consequence tests and in vivo evaluations in animal models.
The inhibition of cell proliferation by library compounds was evaluated using the CellTiter 96 Non-Radioactive Cell Proliferation Assay following the protocol recommended by the manufacturer (Promega, Madison Wis.). […]

As for `O=C1c2ccccc2C(=O)c2c1ccc1c(=O)n(-c3ccccc3)[nH]c21` [UA62001, 2-phenyl-1H-Naphth [2,3-g]indazole-3,6,11(2H)-trione], the IC50 in the assay with HS766T (DPC4 deleted) was 3.1 µM; in the assay on HPDE6 (wild-type DPC4), greater than 100 µM. Further, the “selectivity against DPC4 deficiency” value in assay [1] is listed as “DPC4 genotype selectivity”.
